IC50 data for 25 compounds are collected here from patent publication US9758492B2, “IDO inhibitors” (Bristol-Myers Squibb Company, priority 2013, dated 2017).

The IC50 is the point on the concentration scale where inhibition reaches its midpoint.

For assay [1], the target named is T1, IDO (Homo sapiens, UniProt P14902). In words: LLE_IDO_ABS_DR (IDO assay).
Assay [2] concerns the target T1, IDO. In words: Kynurenine assay in Hela cells stimulated with IFN-γ to express IDO. To be noted: 20 h, read-out: Hela Kyurenine (IC50). Details: endogenous in cells; host or cells: HeLa (ATCC CCL-2), stimulated with human recombinant IFN-gamma. The format is cell-based. On the procedure: IFNg (R&D, 28-IF-100)—resuspend at 10 ug/mL in PBS with 0.1% BSA 30% TCA
Ehrlich reagent (2% w/v p-dimethylaminobenzaldehyde in glacial acetic acid)
Cell Titer 96 Aqueous Non-Radioactive Cell Proliferation Assay, MTS (Promega, Cat # G5430)
Cell Lines and Culture Conditions
Hela cancer cell lines were acquired from the American Type Culture Collection. Cells were maintained in phenol red free-RPMI1640 medium containing high glucose and L-glutamine (Invitrogen) supplemented with 10% fetal bovine serum (FBS; Invitrogen). Cell cultures were incubated at 37° C., 5% CO2, and 100% humidity.
Cell Treatment and Kynurenine Assay
Hela cells were seeded on 96-well plates (40,000 cells per well) and allowed to adhere for 5-6 hours. Cells were then treated with vehicle (DMSO) or with IDO inhibitor at a top dose of 30 μM (3-fold dilution all the way down to 1.5 nM). A final concentration of 100 ng/mL of human recombinant IFN-γ (R&D, 28-IF-100) was immediately added to the cells to stimulate IDO expression. Treated cells were then incubated for 20 hours at 37° C. At the end of the 20 h incubation, reactions were terminated by the addition of 30% TCA to each well. Plates were incubated for 30 minutes at 50° C. to hydrolyze N-formylkynurenine to kynurenine. Cells were centrifuged 10 minutes at 2400 rpm. 100 ul of supernatants were transferred to new 96 flat well plates and mixed with 100 ul Ehrlich reagent. The resulting solution was incubated 10 minutes at RT. Absorbance at 490 nm was read using Spectra Max 384 (Molecular Devices).

The target of a further assay is T2, Human IDO1 (Homo sapiens, UniProt P14902).
T2 construct: expressed in transfected cells; host or cells: HEK293
T2 sequence (P14902 whole entry): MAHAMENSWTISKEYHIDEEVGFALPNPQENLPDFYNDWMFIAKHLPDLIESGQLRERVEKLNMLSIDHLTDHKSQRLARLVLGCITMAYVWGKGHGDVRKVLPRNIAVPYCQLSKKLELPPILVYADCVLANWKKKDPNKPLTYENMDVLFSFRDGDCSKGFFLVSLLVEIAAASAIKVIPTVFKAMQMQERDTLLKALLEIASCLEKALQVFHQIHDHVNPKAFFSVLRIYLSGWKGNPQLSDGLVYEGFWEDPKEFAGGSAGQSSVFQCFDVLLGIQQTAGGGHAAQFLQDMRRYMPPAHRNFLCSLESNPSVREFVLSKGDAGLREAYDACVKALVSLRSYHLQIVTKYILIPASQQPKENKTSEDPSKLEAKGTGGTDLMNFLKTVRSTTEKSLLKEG
In words: IDO Kynurenine Assay with Human IDO1/HEK293 Cells. The assay is classed as cell-based. The note with it: read-out: HEK human IDO-1 (IC50). Summed up: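 HEK293 cells stably expressing human IDO1, in phenol red-free RPMI/10% FBS, exposed to compound for 20 h at 37 °C. Stopped with 0.2% TCA (50 °C, 30 min); kynurenine in supernatant detected with Ehrlich reagent, absorbance 490 nm.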

T1 sequence (P14902 whole entry): as above

On to `Cc1ccc(NC(=O)Nc2cc(-c3ccccc3C(=O)O)c(F)cc2N(C)C2CCCCC2)cc1` [Example 221, 4′-(cyclohexyl(methyl)ami-no)-2′-fluoro-5′-(3-p-tolylureido)biphenyl-2-carboxylic acid], for which the IC50 on IDO [1] worked out at 0.00905 µM; on IDO [2], 0.00656 µM.
The matching figures for `CCCN(CC1CC1)c1ccc(-c2ccccc2-c2nnn[nH]2)cc1NC(=O)Nc1ccc(C)cc1` [Example 59, 1-(4-((cyclopropylmethyl) (propyl)amino)-2′-(1H-tetrazol-5-yl)biphenyl-3-yl)-3-p-tolylurea]: 0.02 µM and 0.01 µM.
The matching figures for `CN(c1ccc(-c2ccccc2-c2nnn[nH]2)cc1NC(=O)Nc1ccccc1F)C1CCCCC1` [Example 214, 1-(4-(cyclohexyl(methyl)amino)-2′-(1H-tetrazol-5-yl)biphenyl-3-yl)-3-(2-fluorophenyl)urea]: 0.00236 µM and 0.00107 µM.
For `Cc1ccc(NC(=O)Nc2cc(-c3ccccc3C(=O)O)ccc2N(CC(C)C)CC(C)C)cc1` [Example 52, 4′-(diisobutyl-amino)-3′-(3-p-tolylureido) biphenyl-2-carboxylic acid] the same measures were 0.01 µM and 0.00557 µM.
Take `COc1ccc(-c2ccc(N(C)C3CCCCC3)c(NC(=O)Nc3ccc(C)cc3)c2)cc1C(=O)O` [Example 43, 4′-(cyclohexyl (methyl)amino)-4-methoxy-3′-(3-p-tolylureido)biphenyl-3-carboxylic acid]: the IC50 at IDO [2] was found to be 1.43 µM.
The same measure, in the same setting: with `Cc1ccc(NC(=O)Nc2cc(-c3ccccc3C(=O)O)ccc2N(C)C2CCOCC2)cc1` [Example 51, 4′-(methyl(tetra-hydro-2H-pyran-4-yl)amino)-3′-(3-p-tolylureido)biphenyl-2-carboxylic acid] the figure was 2.13 µM.
On the same count and under the same terms, then `COc1ccc(-c2ccc(N(C)C3CCCCC3)c(NC(=O)Nc3ccccc3Cl)c2)cc1C(=O)O` [Example 42, 3′-(3-(2-chlorophenyl)ureido)-4′-(cyclohexyl(methyl)amino)-4-methoxybiphenyl-3-carboxylic acid], with 1.17 µM.
For `Cc1ccc(NC(=O)Nc2cc(-c3cc(F)ccc3C(=O)O)cc(Cl)c2N(CC(C)C)CC(C)C)cc1` [Example 41, 3′-Chloro-4′-(diisobutylamino)-5-fluoro-5′-(3-p-tolylureido)biphenyl-2-carboxylic acid], the IC50 stood at 0.00178 µM against IDO [1] and 0.00631 µM on Human IDO1.
As to `O=C(Nc1ccc(F)cc1F)Nc1cc(-c2ccccc2-c2nnn[nH]2)ccc1N(CCC(F)(F)F)Cc1ccc(F)cc1C(F)(F)F` [Example 340, 1-(2,4-difluorophenyl)-3-(4-((4-fluoro-2-(trifluoromethyl)benzyl) (3,3,3-trifluoropropyl)amino)-2′-(1H-tetrazol-5-yl)-[1,1′-biphenyl]-3-yl)urea], the IC50 on IDO [1] is 0.03 µM; at Human IDO1 it was 0.04 µM.
The matching figures for `O=C(Nc1ccc(OC(F)(F)F)cc1)Nc1cc(-c2ccccc2-c2nnn[nH]2)ccc1N(CCCC(F)(F)F)Cc1ccc(Cl)cc1` [Example 322, 1-(4-((4-chlorobenzyl)(4,4,4-trifluorobutyl)amino)-2′-(1H-tetrazol-5-yl)-[1,1′-biphenyl]-3-yl)-3-(4-(trifluoromethoxy)phenyl)urea]: 0.06 µM and 0.22 µM.
Consider `O=C(Nc1ccc(C2CC2)cc1)Nc1cc(-c2ccccc2-c2nnn[nH]2)ccc1N(CCC(F)(F)F)Cc1ccc(F)cc1C(F)(F)F` [Example 299, 1-(4-cyclopropylphenyl)-3-(4-((4-fluoro-2-(trifluoromethyl)benzyl) (3,3,3-trifluoropropyl)amino)-2′-(1H-tetrazol-5-yl)-[1,1′-biphenyl]-3-yl)urea], for which the half-inhibitory concentration (IC50) is 0.02 µM on IDO [1] and 0.05 µM at Human IDO1.
The matching figures for `Cc1cc(NC(=O)Nc2cc(-c3ccccc3-c3nnn[nH]3)ccc2N(CC(C)C)CC2CC(F)(F)C2)on1` [Example 382]: 0.5 µM and 0.35 µM.
For `Cc1ccc(NC(=O)Nc2cc(-c3ccccc3-c3nnn[nH]3)ccc2N2CC3CC2CN3Cc2ccccc2)cc1` (centres unmarked) [Example 317, 1-(4-(5-benzyl-2,5-diazabicyclo[2.2.1]heptan-2-yl)-2′-(1H-tetrazol-5-yl)-[1,1′-biphenyl]-3-yl)-3-(p-tolyl)urea] the same measures were 0.03 µM and 0.05 µM.
`O=C(Nc1ccc(F)cc1F)Nc1cc(-c2ccccc2-c2nnn[nH]2)ccc1N(CCC(F)(F)F)Cc1ccc(OC(F)(F)F)cc1` [Example 504, 1-(2′-(1H-Tetrazol-5-yl)-4-((4-(trifluoromethoxy)benzyl)(3,3,3-trifluoropropyl)amino)-[1,1′-biphenyl]-3-yl)-3-(2,4-difluorophenyl)urea]: the IC50 against IDO [1] amounted to 0.0004 µM; on Human IDO1, 0.00514 µM.
For `Cc1ccc(NC(=O)Nc2cc(-c3ccccc3-c3nnn[nH]3)ccc2N2CCCc3ccccc32)cc1` [Example 361, 1-(4-(3,4-Dihydroquinolin-1(2H)-yl)-2′-(1H-tetrazol-5-yl)-[1,1′-biphenyl]-3-yl)-3-(p-tolyl)urea] the same measures were 0.11 µM and 0.22 µM.
For `Cc1ccc(NC(=O)Nc2cc(-c3ccccc3-c3nnn[nH]3)cc(Cl)c2N(CC(C)C)CC(C)C)cc1` [Example 39, 1-(5-Chloro-4-(diisobutylamino)-2′-(1H-tetrazol-5-yl)biphenyl-3-yl)-3-p-tolylurea] the same measures were 0.001 µM and 0.00237 µM.
For `CC(C)CN(Cc1ccccc1)c1ccc(-c2ccccc2-c2nnn[nH]2)cc1NC(=O)Nc1ccc(C2CC2)cc1` [Example 291, 1-(4-(Benzyl(isobutyl)amino)-2′-(1H-tetrazol-5-yl)-[1,1′-biphenyl]-3-yl)-3-(4-cyclopropylphenyl)urea] the same measures were 0.09 µM and 1.83 µM.
As for `CC(C)CN(CC(C)C)c1ccc(-c2ccccc2-c2nnn[nH]2)cc1NC(=O)Nc1ccc(Br)cc1F` [Example 38, 1-(4-Bromo-2-fluorophenyl)-3-(4-(diisobutylamino)-2′-(1H-tetrazol-5-yl)biphenyl-3-yl)urea], the IC50 was found to be 0.00184 µM on IDO [1] and 0.00178 µM at Human IDO1.
The matching figures for `Cc1ccc(NC(=O)Nc2cc(-c3ccccc3-c3nnn[nH]3)ccc2N(CC(C)C)C2CCOCC2)cc1` [Example 379]: 0.02 µM and 0.03 µM.
For `Cc1ccc(NC(=O)Nc2cc(-c3ccccc3C(=O)O)ccc2N(CCC(F)(F)F)Cc2ccc(Cl)cc2)cc1` [Example 14, 4′-((4-Chlorobenzyl)(3,3,3-trifluoropropyl)amino)-3′-(3-(p-tolyl)ureido)-[1,1′-biphenyl]-2-carboxylic acid] the same measures were 0.08 µM and 0.1 µM.
For `CC(C)CN(CC(C)C)c1ccc(-c2cc(F)ccc2-c2nnn[nH]2)cc1NC(=O)Nc1ccccc1F` [Example 484] the same measures were 0.0025 µM and 0.01 µM.
`O=C(Nc1ccc(C(F)(F)F)cc1F)Nc1cc(-c2ccccc2-c2nnn[nH]2)ccc1N(CCC(F)(F)F)Cc1ccccn1` [Example 303, 1-(2-fluoro-4-(trifluoromethyl)phenyl)-3-(4-((pyridin-2-ylmethyl)(3,3,3-trifluoropropyl)amino)-2′-(1H-tetrazol-5-yl)-[1,1′-biphenyl]-3-yl)urea]: the IC50 against IDO [1] worked out at 0.05 µM; on Human IDO1 it was 0.28 µM.
For `CC(C)CN(c1ccc(-c2ccccc2-c2nnn[nH]2)cc1NC(=O)Nc1ccc(OC(F)(F)F)cc1)C1CCC(F)(F)CC1` [Example 514, 1-(4((4,4-Difluorocyclohexyl)(isobutyl)amino)-2′-(1H-tetrazol-5-yl)-[1,1′-biphenyl]-3-yl)-3-(4-(trifluoromethoxy)phenyl)urea] the same measures were 0.01 µM and 0.02 µM.
Turning to `COCCN(Cc1ccc(Cl)cc1)c1ccc(-c2cc(F)ccc2C(=O)O)cc1NC(=O)Nc1ccc(C)cc1` [Example 193, 4′-((4-chlorobenzyl)(2-methoxyethyl)amino)-5-fluoro-3′-(3-(p-tolyl)ureido)-[1,1′-biphenyl]-2-carboxylic acid], the IC50 against IDO [1] is 0.03 µM; on Human IDO1 it was 0.07 µM.
For the compound `C=CC(c1ccccc1)c1cc(-c2ccccc2-c2nnn[nH]2)cc(NC(=O)Nc2ccccc2F)c1NCC(C)C` (centres unmarked) [Example 357, 1-(2-fluorophenyl)-3-(4-(isobutylamino)-5-(1-phenylallyl)-2′-(1H-tetrazol-5-yl)-[1,1′-biphenyl]-3-yl)urea], the 50% inhibitory concentration (IC50) against IDO [1] came to 0.04 µM; at Human IDO1 it was 0.32 µM.
